{"source": "patent US20230301988A1", "about": "(priority 2020, published 2023)", "key": {"Vero E6 cells [1]": {"system": "Vero E6 cells", "assay": "Azide enrichment and proteomic analysis of K11777-alkyne treated Vero E6 cells", "format": "cell-based, African green monkey", "experimental": "Cell lysates of Vero E6 cells were prepared as described above. Enrichment of alkyne-modified proteins was conducted using the Click-&-Go Protein Enrichment Kit (Click Chemistry Tools) and the protocols thereof. Proteolysis of the resin-bound, enriched proteins, which had been reduced with DTT and alkylated with iodoacetamide, was conducted by addition of 1 μg of Trypsin Gold (Promega) at 37° C. overnight with gentle agitation. The digested peptides were then eluted from the column and subjected to desalting using Pierce™ C18 Tips, 100 μL bed (Thermo Fisher Scientific). The desalted peptides were concentrated to dryness via speed vacuum centrifugation, and suspended in 25 mM ammonium bicarbonate. […]\nData were processed using MaxQuant 1.6.14. Label-free quantification was enabled at the default parameters. […] MaxQuant result files were analyzed using Perseus 1.6.14. Reverse hits, potential contaminant hits, hits only identified by site and hits for which only one peptide was detected were removed. Only proteins which were not detected in the control were considered. […] Finally, proteins which were detected in at least two test samples were clustered based on highest to lowest intensity in the 5 μM and 10 μM treated columns at default parameters (column clustering was disabled) and plotted as a heat map."}, "Vero E6 cells [2]": {"system": "Vero E6 cells", "assay": "Bio-orthogonal labeling of protein targets in Vero E6 cells, in-gel fluorescence", "format": "cell-based, African green monkey", "conditions": "for labelling of the 24-25-kDa protein by K11777-alkyne after pre-treatment: pre-treatment 1 μM K777, 1 μM K777 alkyne, SARS-CoV-2 infected and uninfected cells", "experimental": "4N-propargyl-K11777 was added at concentrations of 1-10 µM to Vero E6 (African green monkey kidney cells), with and without infection by SARS CoV-2 viral particles at an multiplicity of infection of 0.1. […] Cells growth continued for 4 days, followed by harvest, and ˜ 20 million cells were suspended in 1 mL of lysis buffer (200 mM Tris, 4% CHAPS, 1M NaCl, 8 M Urea, pH=8) and protease inhibitor cocktail (Sigma Aldrich) at a ratio of 50:1 (v/v). Cells were lysed by sonication (ThermoFisher Scientific), with the sample on ice, with a ⅛-inch probe at 20% amplitude for 3-seconds, three times with a minute delay between pulses. The cell debris was pelleted (10,000×g for 10 minutes) followed by removal of the supernatant and determination of protein concentration by BCA assay (ThermoFisher Scientific). Labeling of the K11777-alkyne-treated cells was performed in a stepwise fashion whereby 100 mM TBTA in 1:4 DMSO: n-butanol (v/v) was added to 1 mM CuSO4 in water, followed by the addition of 20 mM Cy7-azide (Click Chemistry Tools) in DMSO, 24 μg cell lysate, and finally 2.5 mM sodium ascorbate in water. This reaction was incubated at room temperature for 1-3 hours and quenched by the addition ice-cold methanol (200 μL), chloroform (75 μL), and water (150 μL) followed by vortexing and centrifugation at 15,000 RPM at 4° C. for 15 minutes. […] Then, 4× loading dye (240 mM Tris-HCl, 8% SDS (w/v), 0.004% bromophenol blue (to avoid fluorescence from the dye), 5 mM DTT, and MilliQ water was added to a total volume of 24 μL. Samples were heated to 95° C. for 5 minutes followed by a brief centrifugation at 5,000 RPM for 1 min. The protein-standards ladder (Bio-Rad, Precision Plus Protein™ Dual Color Standards) was diluted 10,000 fold in 4% SDS buffer, loading dye, and water and loading dye 4× loading dye and water to avoid strong fluorescence from the ladder during imaging. Samples were analyzed on a 12% Bis-Tris Nu-PAGE gel (Invitrogen). […] Densitometry of in gel fluorescence was conducted using ImageJ. The gels were also analyzed by Coomassie Brilliant Blue R-250 staining (Bio-Rad)."}, "pseudovirus SARS CoV-1": {"system": "pseudovirus SARS CoV-1", "conditions": "cited from earlier work"}, "cathepsin L [3]": {"target": "T1, cathepsin L (Homo sapiens, UniProt P07711)", "T1 sequence (P07711 114-333)": "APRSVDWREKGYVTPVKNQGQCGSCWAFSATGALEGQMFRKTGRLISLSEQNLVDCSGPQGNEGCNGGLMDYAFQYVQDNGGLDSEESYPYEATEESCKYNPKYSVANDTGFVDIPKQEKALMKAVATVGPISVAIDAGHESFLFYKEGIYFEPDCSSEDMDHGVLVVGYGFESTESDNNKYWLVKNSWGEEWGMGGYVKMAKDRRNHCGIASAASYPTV", "assay": "Kinetic assay for cathepsin L", "format": "biochemical", "experimental": "(§1) For assays of cathepsin B, L, and S, cruzain inhibitors were evaluated in reaction mixtures containing a buffer of sodium acetate (pH 5.5), 1 mM CHAPS, 1 mM Na2EDTA, and 5 mM DTT at 25° C. The substrate Cbz-Phe-Arg-AMC was dissolved in 100% DMSO, as were all inhibitors, and aliquots of both substrates and inhibitors were added to 0.25 mL reaction mixtures to final concentrations of 10% DMSO (v/v). […] Cruzain inhibitors were added at seven concentrations and one fixed concentration of Cbz-Phe-Arg-AMC, and time courses of AMC formation were analyzed as with cruzain."}, "cruzain": {"target": "cruzain (Trypanosoma cruzi, UniProt P25779)", "sequence (P25779 123-337)": "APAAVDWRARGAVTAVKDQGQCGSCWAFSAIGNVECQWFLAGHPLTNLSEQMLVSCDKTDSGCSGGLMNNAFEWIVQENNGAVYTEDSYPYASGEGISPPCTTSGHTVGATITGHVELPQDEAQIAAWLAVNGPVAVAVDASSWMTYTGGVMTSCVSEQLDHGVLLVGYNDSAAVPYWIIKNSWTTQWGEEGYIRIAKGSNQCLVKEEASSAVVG", "assay": "Cruzain inactivation", "format": "biochemical"}, "cathepsin L [4]": {"target": "T1, cathepsin L", "assay": "Proteolysis of SARS CoV-2 Spike protein by cathepsin L", "format": "biochemical", "conditions": "pH 5.5"}, "cathepsin S": {"target": "cathepsin S (Homo sapiens, UniProt P25774)", "sequence (P25774 115-331)": "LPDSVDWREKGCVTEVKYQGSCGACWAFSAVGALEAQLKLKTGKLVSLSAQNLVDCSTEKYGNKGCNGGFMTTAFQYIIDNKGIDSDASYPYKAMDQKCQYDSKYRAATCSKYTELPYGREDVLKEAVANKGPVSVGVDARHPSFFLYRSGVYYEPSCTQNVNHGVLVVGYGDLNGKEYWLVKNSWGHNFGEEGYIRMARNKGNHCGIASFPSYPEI", "assay": "Kinetic assay for cathepsin S", "format": "biochemical", "experimental": "as §1"}, "host cells": {"system": "host cells", "assay": "Toxicity in host cells"}, "cathepsin B": {"target": "cathepsin B (Homo sapiens, UniProt P07858)", "assay": "Kinetic assay for cathepsin B", "format": "biochemical", "conditions": "substrate, pH 5.5, 25° C."}}, "note": "Residues, ends and D or L forms follow the SMILES beside them.", "data": [{"smiles": "C#CCN1CCN(C(=O)N[C@@H](Cc2ccccc2)C(=O)N[C@H](/C=C/S(=O)(=O)c2ccccc2)CCc2ccccc2)CC1", "note": "[N4-Propargyl-K11777, N-((S)-1-oxo-3-phenyl-1-(((S,E)-5-phenyl-1-(phenylsulfonyl)pent-1-en-3-yl)amino)propan-2-yl)-4-(prop-2-yn-1-yl)piperazine-1-carboxamide]", "values": [{"measurement": "most enriched labeled proteins (bead capture, mass spectrometry)", "setting": "Vero E6 cells [1]; listed as K777 alkyne", "value": "cathepsins B and L are strongly enriched"}, {"measurement": "most enriched labeled proteins (bead capture, mass spectrometry)", "setting": "Vero E6 cells [1]; listed as N4-propargyl analogue of K11777", "value": "cathepsins L and B"}, {"measurement": "proteins labeled in Vero E6 cells", "setting": "Vero E6 cells [2]; infected and un-infected with CoV-2, Cy7 azide", "value": "labels only cellular proteins of an apparent molecular weight of 24-25 kDa"}]}, {"smiles": "CN1CCN(C(=O)N[C@@H](Cc2ccccc2)C(=O)N[C@H](/C=C/S(=O)(=O)c2ccccc2)CCc2ccccc2)CC1", "note": "[K11777, 4-methyl-N-((S)-1-oxo-3-phenyl-1-(((S,E)-5-phenyl-1-(phenylsulfonyl)pent-1-en-3-yl)amino)propan-2-yl)piperazine-1-carboxamide]", "values": [{"measurement": "infection of Vero, A549 and other mammalian cells by pseudovirus SARS CoV-1", "setting": "pseudovirus SARS CoV-1", "value": "exceptionally potent inhibitor"}, {"measurement": "inactivation of cathepsin L", "setting": "cathepsin L [3]", "value": "exceptionally potent, covalent inactivator"}, {"measurement": "inactivation of cruzain", "setting": "cruzain", "value": "exceptionally potent, covalent inactivator"}, {"measurement": "cathepsin L-catalyzed proteolysis of SARS CoV-2 Spike protein", "setting": "cathepsin L [4]", "value": "blocked"}, {"measurement": "cathepsin L-catalyzed proteolysis of SARS CoV-2 Spike protein", "setting": "cathepsin L [4]; listed as K777", "value": "inhibited"}, {"measurement": "inactivation of cathepsin S", "setting": "cathepsin S", "value": "exceptionally potent, covalent inactivator"}, {"measurement": "labelling of the 24-25-kDa protein by K11777-alkyne after pre-treatment", "setting": "Vero E6 cells [2]", "value": "prevented labelling"}, {"measurement": "labelling of the 24-25-kDa protein by K11777-alkyne after pre-treatment", "setting": "Vero E6 cells [2]; listed as K777", "value": "blocked"}, {"measurement": "toxicity in host cells", "setting": "host cells", "value": "No toxicity"}]}, {"smiles": "Cc1cc(=O)oc2cc(NC(=O)[C@H](CCCN=C(N)N)NC(=O)[C@H](Cc3ccccc3)NC(=O)OCc3ccccc3)ccc12", "note": "[Cbz-Phe-Arg-AMC, reference compound] (HELM PEPTIDE1{[O=C(OCc1ccccc1)[*:2]].F.R.[Cc1cc(=O)oc2cc(N[*:1])ccc12]}$$$$V2.0)", "values": [{"measurement": "Michaelis constant", "setting": "cathepsin L [3]; substrate, pH 5.5, 25° C.", "value": 2.9, "unit": "µM"}, {"measurement": "Michaelis constant", "setting": "cathepsin S; substrate, pH 5.5, 25° C.", "value": 60, "unit": "µM"}, {"measurement": "Michaelis constant", "setting": "cathepsin B", "value": 150, "unit": "µM"}]}]}
